Source: ChEMBL document CHEMBL1142393, “Design and characterization of mechanism-based inhibitors for the tyrosine aminomutase SgTAM” (Bioorg Med Chem Lett, 2008)

Experiment: Inhibition of Streptomyces globisporus TAM

SMILES | IC50 [mM]
O=C(O)[C@H]1O[C@@H]1c1ccccc1 | 5.8
COc1ccc([C@H]2O[C@@H]2C(=O)O)cc1 | 3
N[C@H](c1ccccc1)C(F)(F)C(=O)O | 7.3
O=C(O)[C@H]1O[C@@H]1c1ccc(F)cc1 | 11.6
